Results as given in patent publication US20250288583A1, “Treatment of Mucus Hypersecretion” (priority 2024, published 2025).

Legend:
[1] = human volunteers; cited from earlier work
[2] = see Table 8, Wei U.S. Pat. No. 8,258,320; cited from earlier work
ostiomeatal complex = experiment: Case study 6: WS-12 nebulization for dry mouth of obstructed breathing; assay type: in vivo, human
From the text: As hypersecretion of mucus was not the principal event, it was decided that a long-acting p-menthanecarboxamide, WS-12, might work well for the dry mouth. WS-12 was first discovered by the applicant to be a potent TRPM8 receptor agonist (Reynolds and Polakis, U.S. Pat. No. 7,893,072), and they supplied this reagent for testing and publications [see Bödding et al. (Cell Calcium. 42:618-28, 2007), and Sherkheli (J. Pharm. Pharmaceu. Sci. 13:242-53, 2010)]. WS-12 has weak cooling effects on the skin. WS-12 was later approved as a food additive (FEMA) for comestibles such as chewing gum. WS-12 is available online for about $USD 15 per 100 g. WS-12 was prepared at 10 mg/ml in 1% ethanol and 2% polysorbate 80 suspensions for a 5-see nebulization using the NasoNeb® apparatus in a volunteer subject and administered once before sleep.
The subject now uses the WS-12 on an occasional as-needed basis. The nasal polyps are still present upon endoscopic examination. The WS-12 chemical structure is ideal for use in obstructed breathing because it has an aryl moiety that increases lipophilicity (higher octanol-water partition coefficient). Lipophilicity increases retention in the nasal mucosa; thus, its action is long-lasting. […] Its actions are more gentle, with a mild coolness on the nasal surfaces. […]

nasal cavity = experiment: Nebulizer screening of TRPM8 agonists for sensations in the nasal cavity; assay type: in vivo, human; conditions: NasoNeb nebulizer
Method: Formulations for nebulization with NasoNeb® used a standard recipe of (Table 8): 1% of the active ingredient (1 to 10 mg/mL), 2% Tween 80 (Polysorbate 80), 1 to 5% ethanol, and made up to 100% with water. The mixture is centrifuged in a FlackTek, Inc., Speedmixer for at least 10 min at 3000 rpm. The Speedmixer spins the sample in 3 dimensions. The result is a white homogeneous liquid suspension with some of the solids now dissolved. For dosing, ˜2 to 3 mL is loaded into the canister of the nebulizer. The nebulizer nozzle tip is placed in the nostril and activated by pressing a button for 3 to 5 sec using a clock timer. […] For D-Ala-OiPr a 5-sec activation will deliver 2*0.73 mL*2 mg/ml, or a total dose of 3 mg per nose. The nasal cavity is relatively tolerant to exogenous agents with irritant properties, as many rinses are used for rhinitis and sinusitis. For some p-menthanecarboxamide analogs, a 2% (20 mg/mL) solution is possible and contemplated. An ideal agent reproduces a comfortable cooling or sensations of negative heat flux in the nasal cavity. […] Heat flux refers to the rate of heat transfer per unit area. The sinonasal cavity mucosa differs from philtrum skin and ocular margins in histology, so the choice of the right molecule must be made by experiment. The TRPM8 agonists were chosen for screening using a nebulizer for delivery. The NasoNeb system is powerful and effective for the OMC (FIG. 3). The delivery time per nostril in three to five seconds. […] These parameters were estimated in the initial trials: • Onset and offset of cooling sensations in the nasal cavity. • The intensity and quality of the cooling sensations in the nasal cavity. • Presence of effects such as sneezing or cough after dosing. • Degree of nasal stuffiness on a scale of 0 to 5. • Degree of rhinorrhea and phlegm in nasal secretions. • Questions regarding comfort and sleep at night.

[3] = test system: goblet cells of human nasal epithelium; conditions: Liu et al., 2017; cited from earlier work
hTRPM8 channel = target: T1, hTRPM8 channel (Homo sapiens, UniProt Q7Z2W7); experiment: TRPM8 receptor assay, calcium entry (Fluo-8, FLIPR) in transfected CHO cells; assay type: cell-based; conditions: FIG. 5
T1 construct: host or cells: CHO cells
T1 sequence (Q7Z2W7 whole entry): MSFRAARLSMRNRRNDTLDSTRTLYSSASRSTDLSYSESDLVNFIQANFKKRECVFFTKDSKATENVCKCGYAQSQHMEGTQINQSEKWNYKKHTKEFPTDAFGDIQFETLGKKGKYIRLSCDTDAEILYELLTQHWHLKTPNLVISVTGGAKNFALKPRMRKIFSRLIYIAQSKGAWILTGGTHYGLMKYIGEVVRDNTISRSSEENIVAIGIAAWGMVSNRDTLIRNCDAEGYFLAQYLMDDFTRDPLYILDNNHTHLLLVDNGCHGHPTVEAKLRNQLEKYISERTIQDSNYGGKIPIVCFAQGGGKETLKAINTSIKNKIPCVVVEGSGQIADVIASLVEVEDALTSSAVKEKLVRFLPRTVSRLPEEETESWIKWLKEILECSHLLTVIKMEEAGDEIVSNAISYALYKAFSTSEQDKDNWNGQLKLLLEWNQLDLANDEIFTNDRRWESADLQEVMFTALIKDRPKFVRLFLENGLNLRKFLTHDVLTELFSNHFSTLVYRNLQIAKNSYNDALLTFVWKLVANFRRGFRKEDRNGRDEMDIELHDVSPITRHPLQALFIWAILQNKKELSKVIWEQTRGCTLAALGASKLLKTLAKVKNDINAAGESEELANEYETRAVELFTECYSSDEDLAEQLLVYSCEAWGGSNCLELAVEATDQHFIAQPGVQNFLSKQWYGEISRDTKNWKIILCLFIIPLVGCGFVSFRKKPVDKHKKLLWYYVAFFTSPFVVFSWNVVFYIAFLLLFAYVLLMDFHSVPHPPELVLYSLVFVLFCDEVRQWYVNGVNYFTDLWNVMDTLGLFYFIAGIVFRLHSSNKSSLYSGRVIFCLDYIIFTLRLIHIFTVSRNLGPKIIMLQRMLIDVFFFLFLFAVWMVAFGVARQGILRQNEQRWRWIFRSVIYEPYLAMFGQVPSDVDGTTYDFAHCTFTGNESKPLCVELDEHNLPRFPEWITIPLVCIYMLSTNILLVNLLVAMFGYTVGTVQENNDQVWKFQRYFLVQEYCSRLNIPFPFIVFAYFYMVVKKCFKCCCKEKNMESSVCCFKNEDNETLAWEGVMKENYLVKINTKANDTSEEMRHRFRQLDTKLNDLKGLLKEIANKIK
From the text: FIG. 4. Agonist activities of TRPM8 analogs. […] The relative fluorescence (RF) unit on the ordinate represents calcium entry into transfected cells. […] The structures of these compounds are in Table 4.
The applicant has synthesized and examined a series of p-menthanecarboxamides conjugated to amino acid esters. […] This class of molecules is called N-alkylcarbonyl-amino acid esters. GlyOiPr is a p-menthanecarboxamide conjugate of glycine isopropyl (iPr) ester. It is similar in structure to WS-5, a cooling agent used as a food additive. WS-5 is the p-menthane-glycine ethyl (Et) ester, or GlyOEt. […] These in vitro effects were measured in CHO cells transfected with the hTRPM8 channel. Receptor activity was quantified using a Fluo-8 calcium kit and a Fluorescence Imaging Plate Reader ([…]™).

TRPA1 = target: T2, TRPA1 (Homo sapiens, UniProt O75762); conditions: Karashima et al., 2007; cited from earlier work
T2 construct: expressed in transfected cells
T2 sequence (O75762 whole entry, species assumed): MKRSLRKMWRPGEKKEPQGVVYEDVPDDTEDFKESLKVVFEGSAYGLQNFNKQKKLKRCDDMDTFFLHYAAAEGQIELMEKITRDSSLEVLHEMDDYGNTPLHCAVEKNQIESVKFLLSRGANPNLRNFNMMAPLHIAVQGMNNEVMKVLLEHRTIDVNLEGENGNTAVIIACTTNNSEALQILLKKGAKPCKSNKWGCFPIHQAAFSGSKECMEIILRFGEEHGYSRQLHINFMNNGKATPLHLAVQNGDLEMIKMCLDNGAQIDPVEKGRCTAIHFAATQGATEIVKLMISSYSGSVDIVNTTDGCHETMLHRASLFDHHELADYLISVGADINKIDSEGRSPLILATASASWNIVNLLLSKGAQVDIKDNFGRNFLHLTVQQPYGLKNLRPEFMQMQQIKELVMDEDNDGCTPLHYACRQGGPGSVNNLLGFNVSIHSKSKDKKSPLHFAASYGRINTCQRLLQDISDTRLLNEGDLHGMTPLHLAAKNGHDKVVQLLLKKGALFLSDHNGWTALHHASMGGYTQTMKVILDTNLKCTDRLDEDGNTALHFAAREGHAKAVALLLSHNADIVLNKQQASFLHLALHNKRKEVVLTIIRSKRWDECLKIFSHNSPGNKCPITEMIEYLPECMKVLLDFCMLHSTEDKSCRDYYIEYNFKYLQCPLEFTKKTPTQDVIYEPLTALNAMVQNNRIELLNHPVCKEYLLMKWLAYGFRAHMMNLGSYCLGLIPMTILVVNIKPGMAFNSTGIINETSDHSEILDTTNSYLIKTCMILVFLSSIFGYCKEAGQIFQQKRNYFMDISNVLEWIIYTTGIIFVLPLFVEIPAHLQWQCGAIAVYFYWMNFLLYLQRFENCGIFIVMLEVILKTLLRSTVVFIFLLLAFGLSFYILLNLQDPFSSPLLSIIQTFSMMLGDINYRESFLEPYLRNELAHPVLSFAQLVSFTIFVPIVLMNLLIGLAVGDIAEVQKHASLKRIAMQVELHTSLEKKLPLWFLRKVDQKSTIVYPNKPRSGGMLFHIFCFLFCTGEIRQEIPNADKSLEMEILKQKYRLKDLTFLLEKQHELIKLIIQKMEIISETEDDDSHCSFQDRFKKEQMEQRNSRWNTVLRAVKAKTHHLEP

Structure (SMILES): COc1ccc2c(c1)n(CCN)c(=O)n2C(=O)[C@@H]1C[C@H](C)CC[C@H]1C(C)C.Cl [D-2363]
- Troponin plasma levels [1]: elevated troponin plasma levels

Structure (SMILES): COc1ccc(NC(=O)[C@@H]2C[C@H](C)CC[C@H]2C(C)C)cc1 [WS-12, (1R,2S,5R)-2-isopropyl-N-(4-methoxyphenyl)-5-methyl-cyclohexanecarboxamide]
- Octanol/water partition coefficient among the p-menthanecarboxamides [2]: highest
- Effect on dry mouth symptoms (ostiomeatal complex; WS-12 10 mg/ml in 1% ethanol and 2% polysorbate 80, 5-sec nebulization once before sleep): dry mouth symptoms disappeared after three days of use
- Effect with manual spraying (ostiomeatal complex; manual sprayer instead of electronically powered nebulizer): does not work well

Structure (SMILES): CC(C)[C@@H]1CC[C@@H](C)C[C@H]1O [l-menthol, (1R,2S,5R)-2-isopropyl-5-methyl-cyclohexanol [(−)-menthol], reference compound]
- Cooling duration in the nasal cavity (nasal cavity): ~7 min
- Sensory effects after delivery into the nasal cavity (nasal cavity; 3 to 5 sec per nostril): Strong cool, clear breathing. Eye irritant, causes rhinorrehea
- MUC5AC secretion [3]: stimulates MUC5AC
- Activity on TRPM8 transfected cells (hTRPM8 channel): active
- Potency on TRPA1 compared with TRPM8 (TRPA1): interacts with TRPA1 at a greater potency than TRPM8
